According to ChEMBL document CHEMBL2311483, “HCV NS5A replication complex inhibitors. Part 3: discovery of potent analogs with distinct core topologies” (Bioorg Med Chem Lett, 2013):
pEC50: −log10 of the molar value. In brackets after ≈: the same amount, converted by molar mass.

Columns and labels:
[1] = Cytotoxicity against human HuH7 cells after 72 hrs by Alamar blue assay; format: cell-based, Huh-7
[2] = tested on: Bovine viral diarrhea virus 1; assay: Antiviral activity against Bovine viral diarrhea virus infected in human HuH7 cells assessed as inhibition of viral replication by luciferase reporter gene assay; format: functional, organism-based; conditions: Bovine viral diarrhea virus isolates and strains, Huh-7
[3] = tested on: Hepatitis C virus; assay: Antiviral activity against HCV1b harboring NS5B infected in human HuH7 cells assessed as inhibition of viral replication after 72 hrs by FRET assay; format: functional, organism-based, Hepacivirus hominis; conditions: genotype 1b, Huh-7, 72 h
[4] = Solubility of the compound in phosphate buffer at pH 6.5; format: physicochemical

Row | SMILES | CC50 at 72 h [1] | pEC50 [2] | pEC50 [3] | solubility [4]
1 | O=C(Nc1ccc(N2CCc3cc(NC(=O)[C@@H]4CCCN4C(=O)Cc4ccccc4)ccc3C2)nc1)[C@@H]1CCCN1C(=O)Cc1ccccc1 | > 10 µM | < 5.00 | 8.76 | 
2 | O=C(Nc1ccc(-c2cnc(-c3ccc(NC(=O)[C@@H]4CCCN4C(=O)Cc4ccccc4)cc3)o2)cc1)[C@@H]1CCCN1C(=O)Cc1ccccc1 | > 10 µM | < 5.00 | 8.62 | 
3 | O=C(Nc1ccc(-c2ccc(-c3ccc(NC(=O)[C@@H]4CCCN4C(=O)Cc4ccccc4)cc3)s2)cc1)[C@@H]1CCCN1C(=O)Cc1ccccc1 | > 10 µM | < 5.00 | 7.83 | 
4 | O=C(Nc1ccc(-c2c[nH]c(-c3ccc(NC(=O)[C@@H]4CCCN4C(=O)Cc4ccccc4)cc3)n2)cc1)[C@@H]1CCCN1C(=O)Cc1ccccc1 | > 10 µM | < 5.00 | 7.17 | 
5 | O=C(Nc1ccc(-c2ccc(NC(=O)[C@@H]3CCCN3C(=O)Cc3ccccc3)cc2)cc1)[C@@H]1CCCN1C(=O)Cc1ccccc1 |  |  | 6.69 | 
6 | CN1Cc2cc(NC(=O)[C@@H]3CCCN3C(=O)Cc3ccccc3)ccc2CC1c1ccc(NC(=O)[C@@H]2CCCN2C(=O)Cc2ccccc2)cc1 (mixture of isomers) | > 10 µM | < 5.00 | 7.86 | 135 µg/mL
7 | O=C(Nc1ccc(NC(=O)[C@@H]2CCCN2C(=O)Cc2ccccc2)cc1)c1ccc(NC(=O)[C@@H]2CCCN2C(=O)Cc2ccccc2)cc1 | > 10 µM | < 5.00 | 7.96 | 
8 | O=C(Nc1ccc(-c2nc3ccc(NC(=O)[C@@H]4CCCN4C(=O)Cc4ccccc4)cc3[nH]2)cc1)[C@@H]1CCCN1C(=O)Cc1ccccc1 | > 10 µM | < 5.00 | 5.98 | 
9 | O=C(Nc1ccc(-c2nc[nH]c2-c2ccc(NC(=O)[C@@H]3CCCN3C(=O)Cc3ccccc3)cc2)cc1)[C@@H]1CCCN1C(=O)Cc1ccccc1 | > 10 µM | < 5.00 | 7.68 | 
10 | O=C(Nc1ccc(-c2cc(-c3ccc(NC(=O)[C@@H]4CCCN4C(=O)Cc4ccccc4)cc3)[nH]n2)cc1)[C@@H]1CCCN1C(=O)Cc1ccccc1 | > 10 µM | < 5.00 | 9.15 | 
11 | O=C(Nc1ccc(/C=C/c2ccc(NC(=O)[C@@H]3CCCN3C(=O)Cc3ccccc3)cc2)cc1)[C@@H]1CCCN1C(=O)Cc1ccccc1 | > 10 µM | < 5.00 | 10.05 | 
12 | O=C(Nc1ccc(C#Cc2ccc(NC(=O)[C@@H]3CCCN3C(=O)Cc3ccccc3)cc2)cc1)[C@@H]1CCCN1C(=O)Cc1ccccc1 | > 10 µM | < 5.00 | 8.20 | 
13 | O=C(c1ccc(NC(=O)[C@@H]2CCCN2C(=O)Cc2ccccc2)cc1)c1ccc(NC(=O)[C@@H]2CCCN2C(=O)Cc2ccccc2)cc1 | > 10 µM | < 5.00 | 5.40 | 
14 | O=C(Nc1ccc(-c2nn[nH]c2-c2ccc(NC(=O)[C@@H]3CCCN3C(=O)Cc3ccccc3)cc2)cc1)[C@@H]1CCCN1C(=O)Cc1ccccc1 | > 10 µM | < 5.00 | 8.09 | 
15 | O=C(Nc1ccc(CCc2ccc(NC(=O)[C@@H]3CCCN3C(=O)Cc3ccccc3)cc2)cc1)[C@@H]1CCCN1C(=O)Cc1ccccc1 | > 10 µM | < 5.00 | 8.22 | 
16 | O=C(Nc1ccc(Cc2ccc(NC(=O)[C@@H]3CCCN3C(=O)Cc3ccccc3)cc2)cc1)[C@@H]1CCCN1C(=O)Cc1ccccc1 | > 10 µM | < 5.00 | 5.77 | 
17 | O=C(Nc1ccc([C@H]2C[C@@H]2c2ccc(NC(=O)[C@@H]3CCCN3C(=O)Cc3ccccc3)cc2)cc1)[C@@H]1CCCN1C(=O)Cc1ccccc1 | > 10 µM | < 5.00 | 8.25 | 3 µg/mL (≈ 4.58 µM)
18 | CC(C)(c1ccc(NC(=O)[C@@H]2CCCN2C(=O)Cc2ccccc2)cc1)c1ccc(NC(=O)[C@@H]2CCCN2C(=O)Cc2ccccc2)cc1 | > 10 µM | < 5.00 | 6.20 | 
19 | O=C(Nc1ccc(-c2nnc(-c3ccc(NC(=O)[C@@H]4CCCN4C(=O)Cc4ccccc4)cc3)o2)cc1)[C@@H]1CCCN1C(=O)Cc1ccccc1 | > 10 µM | < 5.00 | 6.83 | 
20 | O=C(Nc1ccc(COc2ccc(NC(=O)[C@@H]3CCCN3C(=O)Cc3ccccc3)cc2)cc1)[C@@H]1CCCN1C(=O)Cc1ccccc1 | > 10 µM | < 5.00 | 7.01 | 
21 | O=C(Nc1ccc(CCCc2ccc(NC(=O)[C@@H]3CCCN3C(=O)Cc3ccccc3)cc2)cc1)[C@@H]1CCCN1C(=O)Cc1ccccc1 | > 10 µM | < 5.00 | 7.44 | 
22 | CN(C(=O)c1ccc(NC(=O)[C@@H]2CCCN2C(=O)Cc2ccccc2)cc1)c1ccc(NC(=O)[C@@H]2CCCN2C(=O)Cc2ccccc2)cc1 | > 10 µM | < 5.00 | 5.20 | 
23 | O=C(Nc1ccc(-c2c[nH]nc2-c2ccc(NC(=O)[C@@H]3CCCN3C(=O)Cc3ccccc3)cc2)cc1)[C@@H]1CCCN1C(=O)Cc1ccccc1 | > 10 µM | < 5.00 | 8.34 | 
24 | O=C(Nc1cccc(CN2CCc3ccc(NC(=O)[C@@H]4CCCN4C(=O)Cc4ccccc4)cc3C2)c1)[C@@H]1CCCN1C(=O)Cc1ccccc1 | > 10 µM | < 5.00 | 5.41 | 
25 | Cn1nc(-c2ccc(NC(=O)[C@@H]3CCCN3C(=O)Cc3ccccc3)cc2)cc1-c1ccc(NC(=O)[C@@H]2CCCN2C(=O)Cc2ccccc2)cc1 | > 10 µM | < 5.00 | 6.74 | 
26 | O=C(Nc1ccc(/C=C\c2ccc(NC(=O)[C@@H]3CCCN3C(=O)Cc3ccccc3)cc2)cc1)[C@@H]1CCCN1C(=O)Cc1ccccc1 | > 10 µM | < 5.00 | 7.91 | 
27 | O=C(Nc1ccc(Oc2ccc(NC(=O)[C@@H]3CCCN3C(=O)Cc3ccccc3)cc2)cc1)[C@@H]1CCCN1C(=O)Cc1ccccc1 | > 10 µM | < 5.00 | 5.70 | 
28 | O=C(Nc1ccc([C@H]2C[C@H]2c2ccc(NC(=O)[C@@H]3CCCN3C(=O)Cc3ccccc3)cc2)cc1)[C@@H]1CCCN1C(=O)Cc1ccccc1 | > 10 µM | < 5.00 | 6.10 | 
29 | O=C(Nc1ccc(-c2coc(-c3ccc(NC(=O)[C@@H]4CCCN4C(=O)Cc4ccccc4)cc3)n2)cc1)[C@@H]1CCCN1C(=O)Cc1ccccc1 | > 10 µM | < 5.00 | 8.88 | 
30 | O=C(Nc1ccc(CN2CCc3cc(NC(=O)[C@@H]4CCCN4C(=O)Cc4ccccc4)ccc3C2)cc1)[C@@H]1CCCN1C(=O)Cc1ccccc1 | > 10 µM | < 5.00 | 6.80 | 
